# Measurements from patent US9290768B2, “Engineered microorganisms having resistance to ionic liquids” (priority 2012, dated 2016).
# How the values were obtained:
# [1] = tested on: Enterobacter lignolyticus SCF1; assay: Growth of soil isolate in ionic liquid (IL resistance testing); type: cell-based; settings: Enterobacter lignolyticus SCF1, tropical rain forest soil isolate
# Text: In testing for IL resistance in a tropical rain forest soil community, a bacterium that grows in up to 8% 1-ethyl-3-methylimidazolium chloride ([C2mim]Cl) was isolated. It is a Gram-negative anaerobe that is both lignocellulolytic and halotolerant: Enterobacter lignolyticus SCF1 (DeAngelis, et al., Standards in Genomic Sciences 5:69-85, 2011; Khudyakov, et al., Global transcriptome response to ionic liquid by a tropical rain forest soil bacterium, Enterobacter lignolyticus. Proc. Natl. Acad. Sci USA, 2012). We examined SCF1 to identify genes contributing to IL tolerance using various analyses, including screening an E. coli fosmid library containing SCF1 genomic DNA.
# [2] = tested on: E. coli containing an expression plasmid encoding the entire 2.6 kbp insert; assay: Growth of E. coli carrying the 2.6 kbp SCF1 insert at different levels of [C2mim]Cl (shake flask growth assay); type: cell-based; settings: E. coli clones comprising the mfs1 gene sequence; FIG. 3
# Text: FIG. 3 provides data from a 50-ml shake flask growth assay showing the resistance of E. coli containing the 2606 bp region to 4% and 6% [C2mim]Cl. Top panel: lines correspond to E. coli with common sequence; Enterobacter lignolyticus; and E. coli with empty vector; Middle panel (lines designated using hour 6 as a reference point): top line, E. coli with common sequence; middle line, Enterobacter lignolyticus; bottom line, E. coli with empty vector. Bottom panel: top line, E. coli with common sequence; middle line, Enterobacter lignolyticus; bottom line, E. coli with empty vector
# SCF1 cells and E. coli containing an expression plasmid encoding the entire 2.6 kbp insert were tested at different levels of [C2mim]Cl.
# TetR-repressor = assay: MFS1-GFP fusion protein fluorescence (flow-cytometry), induction of repressor; type: cell-based, Enterobacter lignolyticus; settings: FIG. 5
# Experimental: FIG. 5 provides illustrative data showing that [C2mim]Cl-inducible TetR-repressor regulates MFS-expression. […] In the absence of this repressor, the intergenic promoter-region was constitutively turned on (left columns in bar graph compared to right columns).
# An SCF1 library was constructed using 30-50 kb genomic DNA inserts in fosmid vectors, and E. coli transformants were plated on 2% [C2mim]Cl for initial selection. GFP-fluorescence was measured by flow-cytometry.
# In the absence of this repressor, the intergenic promoter-region was constitutively turned on.
# [3] = tested on: E. coli expressing the transporter gene; type: cell-based; settings: ionic liquids at equimolar levels; MFS1-expressing E. coli
# Experimental: Top line, MFS/[C2mim]Cl; Second line from top, MFS/C2mim]Oac; Second line from bottom, empty vector//[C2mim]Cl; Bottom, line empty vector/C2mim]Oac
# In one experiment, E. coli expressing the transporter gene were also cultured in media differing only in the type of imidazolium ionic liquid (at equimolar levels), to assess the influence of aliphatic chain lengths of the cation, and the anions Cl—, BuSO4-, and acetate.
# E. coli = assay: Methyl viologen tolerance of E. coli expressing MFS1; type: cell-based; settings: FIG. 6
# Text: Bottom solid lines are empty vector and tetR-mfs.
# The closest homologue of MFS1 is a methyl viologen transporter protein in K. oxytoca. MFS1 conferred tolerance to this compound in E. coli (FIG. 6).
smiles,measurement,setting,value
"CCn1cc[n+](C)c1.[Cl-] [[C2mim]Cl, 1-ethyl-3-methylimidazolium chloride]",ionic liquid level in which the bacterium grows,[1],up to 8%
same,ionic liquid level at which the clones exhibited resistance,[2],at least 6%
same,induction of the TetR-repressor / regulation of MFS1-expression,TetR-repressor,inducible
"CC(=O)[O-].CCn1cc[n+](C)c1 [[C2mim]-Acetate, 1-ethyl-3-methylimidazolium acetate]",tolerance of E. coli expressing the transporter gene to the ionic liquid,[3],confers tolerance
C[n+]1ccc(-c2cc[n+](C)cc2)cc1 [methyl viologen],tolerance of E. coli conferred by MFS1,E. coli,confers tolerance
"CCCCn1cc[n+](C)c1.[Cl-] [BMIM-Cl, 1-butyl-3-methylimidazolium chloride]",tolerance of E. coli expressing the transporter gene to the ionic liquid,[3],lower tolerance than with EMIM-Cl
